Results on one compound are retold here after patent US20100168040A1, “MUSCLE FATIGUE REMEDY” (Kyowa Hakko Kogyo Co., Ltd., priority 2006, published 2010).

SMILES strings stand for the structures. Residues, ends and D or L forms follow the SMILES beside them.

The conditions of series [1]: alanylglutamine compared to glutamine; cited from earlier work.
The conditions of series [2]: alanylglutamine compared to glutamine; cited from earlier work. The source holds these as a separate data set.
The conditions of series [3]: cited from earlier work.
In the next series the test system is muscle fatigue. In words: Test Example 1: muscle fatigue status of healthy males consuming alanylglutamine continuously for 1 month. It counts as in vivo, human. The note with it: for Muscle fatigue status: 1 month. How it is done:
Twenty-six healthy males ages 21 to 60 consumed alanylglutamine (manufactured by Kyowa Hakko Co., Ltd.) continuously for 1 month, and the muscle fatigue status of the subjects was evaluated.

Consider `C[C@H](N)C(=O)N[C@@H](CCC(N)=O)C(=O)O` [alanylglutamine] (H-Ala-Gln-OH), for which the heat stability entry in series [1] is “superior”. The “solubility in aqueous solutions” value in series [2] was “superior”. The “degradation in the body” value in series [3] is “immediately degraded into alanine and glutamine”. Besides, the “subjects with alleviation of muscle pain after exercise” value in the series on muscle fatigue (of the 15 listed subjects (26 in all), 1 month consumption) came to 10 subjects. Further, the “subjects in whom relief of muscle fatigue was observed” value in the series on muscle fatigue (of the 26 subjects, 1 month consumption) is 15 subjects. The Muscle fatigue status result in the series on muscle fatigue (subject 21 to 25 years, before going to bed, 2 g/administration) was “Disappearance of muscle pain”; in the series on muscle fatigue (subject 26 to 30 years, after exercising, 1 g/administration), “Substantial relief of muscle pain”; with muscle fatigue (subject 26 to 30 years, before and after exercise, approximately 1 g/administration), “Reduction of muscle fatigue”; in the series on muscle fatigue (subject 31 to 35 years, before exercise, 8 g/administration), “Feeling of damage relief”; in the series on muscle fatigue (subject 31 to 35 years, morning and before going to bed, 0.6 g/administration), “Reduction of muscle pain after”; in the series on muscle fatigue (subject 31 to 35 years, morning, 0.5 g/administration), “Lighter muscle pain after”. Further, the Muscle fatigue status entry is “Reduction of muscle pain” in the series with muscle fatigue (subject 36 to 40 years, morning and evening, 0.5 g/administration); “Reduction of stiff shoulders the” in the series on muscle fatigue (subject 45 to 50 years, before going to bed, approximately 2.5 g/administration); “Less fatigue and muscle pain” with muscle fatigue (subject 46 to 50 years, after meals morning and evening, 1 g/administration); “Became less prone to fatigue” in the series with muscle fatigue (subject 51 to 55 years, before going to bed, approximately 0.5 g/administration); “Alleviation of muscle pain after” in the series with muscle fatigue (subject 51 to 55 years, every morning, 1 g/administration); “Reduction of muscle pain” in the series with muscle fatigue (subject 56 to 60 years, morning and evening, 0.5 g/administration).
